# Reference: US20040076659A1, “Additive for livestock feeds” (priority 1994, published 2004)
# Key:
# [1] = system: rumen microbial cells enzyme source; assay: Microbial protein adsorption to ground barley straw; set-up: species or system cows
# Procedure: For the cellulose adhesion tests, the microbial enzyme source was resuspended and tested for adhesion on to a cellulose. substrate (barley straw, with 4% CP and ground through 0.5 mm sieve). […] 0.1 g of the straw in 5 ml of a bacterial cell-enzyme inoculum suspension, and then following the supernatant protein change with time. Readings were taken at 10, 20, 30, 60, and 120 min. At the end of the adsorption period, the assay contents were centrifuged at 2500 g max for 10 min to precipitate the solids, and the protein in the supernatant was precipitated out by 15% TCA solution and quantified by the Bicichoninic method (Smith et al., “Measurement of protein using bicinchonic acid,” Anal. Biochem. 150:76 (1984)). […]
# dairy cows = assay: Tween 80 in total mixed ration, dairy herd trial (Example 4); format: in vivo, Holsteins
# Description: One hundred and twenty cows and heifers in a dairy herd of Holsteins were divided into three treatment groups of 40 animals per group. All animals were given ad libitum access to a total mixed ration (TMR) based on grass silage, corn silage, grass hay, barley and canola meal. The treatments imposed were: Treatment 1—TMR without additive (Control). Treatment 2—TMR formulated to contain 0.2% (wt/wt) Tween 80+0.1% enzyme preparation (wt/wt). Treatment 3—TMR formulated to contain 0.2% (wt/wt) Tween 80. The Tween 80 was coated onto silica to form a product containing 50% Tween 80 and 50% silica. The enzyme preparation was obtained from Lucta S. A. (Barcelona, Spain). The preparation had the following activities: β-glucanase 263.0, xylanase 75.1 and amylase 542.6. Activities were expressed as nmol of reducing sugars released per mg of enzyme in 1 min at 0.83 mg/ml enzyme concentration. The trial lasted 13 weeks. Animals received their respective dietary treatments for 12 weeks. Milk production and feed intake were monitored until the 13th week (1 week after animals had been removed from dietary treatments). Feed (TMR) offered to each group was weighed and recorded at each feeding. Each group was fed to provide a weighback of 5%. Samples of the feed offered and refused were taken daily, composited into weekly samples and dried at 55° C. for 72 hr to determine dry matter (DM) content. Daily (AM and PM) milk production by each cow was recorded. Animals were weighed two days in a row immediately after milking on a monthly basis. Milk samples were taken for compositional analyses (fat, protein, and somatic cells) in the week preceding the trial, and then during the trial at 4 week intervals. Samples were taken from both the AM and the PM milkings and analyzed individually.
# Red Angus steers = assay: Performance of feedlot cattle, 119 days (Example 6); format: in vivo
# Procedure: Three hundred and twenty six Red Angus steers were stratified by weight and divided into eight pens. The pens were then randomly assigned to one of the following four dietary treatments:
# 3) 0.2% (wt/wt) glycanase enzyme (enzyme)
# The enzyme is marketed by GNC Bioferm Inc., Saskatoon, SK. The product contained the following activities (expressed as nmol of reducing sugars released from 1 mg of product per min: xylanase (336.6), β-glucanase (196.0), carboxymethylcellulase (44.4), and amylase (46.3). The basal diet was a total mixed ration consisting of rolled barley, corn silage and canola meal. Tween 80 was diluted with tap water (1 in 5) before it was applied. The total amount of feed required each day for the animals on each treatment was weighed separately in a mixer wagon and the appropriate quantity of Tween 80, enzyme, or their combination applied to it and mixed for ten minutes before feeding. An equal volume of water as applied to the Tween 80 treatment was also applied to the control and enzyme treatment to make the moisture content of the four experimental diets equal. The experimental diets were fed for a total of 119 days. Individual body weights were taken at the beginning and end of the experiment. Group body weights were taken at monthly intervals.
# [2] = Griffin et al., 1972; cited from earlier work
substance,measurement,setting,value
polyoxyethylene sorbitan monoleate [Tween 80],Microbial protein adsorption extent,[1]; 0.05% additive,1.12b μg/mg
same,Microbial protein adsorption rate,[1]; 0.05% additive,0.032b (0.01) μg/mg/min
same,Microbial protein adsorption extent,[1]; 0.10% additive,1.21c μg/mg
same,Microbial protein adsorption rate,[1]; 0.10% additive,0.034c (0.02) μg/mg/min
same,Microbial protein adsorption extent,[1]; 0.25% additive,1.18c μg/mg
same,Microbial protein adsorption rate,[1]; 0.25% additive,0.035c (0.01) μg/mg/min
same,Microbial protein adsorption extent,[1]; 0.50% additive,1.19c μg/mg
same,Microbial protein adsorption rate,[1]; 0.50% additive,0.034c (0.02) μg/mg/min
same,More milk per cow than control over the 12-week period,dairy cows; 0.2% Tween 80 (with or without 0.1% enzyme),64 kg
same,Average increase in milk production over control,"dairy cows; all cows lactating at least 3 weeks before start, 0.2% Tween 80 (with or without 0.1% enzyme)",0.76 kg/cow/day
same,Milk produced (kg) per kg of feed consumed,dairy cows; feed conversion efficiency,1.48 kg per kg of feed
same,More milk than control,"dairy cows; fresh cows, after the 4th week of lactation",approximately 4 kg more milk/cow/day
same,More milk than a cow on Tween 80 plus enzyme over 12 weeks,"dairy cows; mature cow, 0.2% Tween 80",74 kg
same,More milk than a cow on the control diet over 12 weeks,"dairy cows; mature cow, 0.2% Tween 80",110 kg
same,Average increase in milk production,"dairy cows; mature cows, 0.2% Tween 80",1.31 kg/day
same,Average Daily Gain,Red Angus steers; 0.1% Tween 80,1.69a kg/d
same,Average daily gain higher than control,Red Angus steers; 0.1% Tween 80,6.3%
same,Feed Efficiency (Gain/Feed),Red Angus steers; 0.1% Tween 80,0.166
same,More weight gained than animals on the control diet,Red Angus steers; 0.1% Tween 80,approximately 5.8%
same,Total Weight Gain,Red Angus steers; 0.1% Tween 80 (dry matter basis),219.03a kg
same,HLB (hydrophile-lipophile balance),[2],15
